Data set [1] can be described thus: TDI-11155 blood concentration during osmotic minipump delivery. The format is in vivo, mouse. On the procedure:
(§1) At defined time points (15 min to 24 hours post-injection), 10 μl tail blood was progressively collected from the same males, mixed with 20 μl 15 mM EDTA, frozen in liquid nitrogen, and stored at −80 °C until analysis. Liver, kidney, eye, testis, caput and cauda epididymis, and seminal vesicle were collected, weighed, and homogenized in a threefold volume of 1:1 EtOH/H2O (v/v). […] Mice anesthetized with ketamine/xylazine were shaved and residual hair was removed with hair removal cream. A small incision was made with a scalpel, a hemostat was used to create a pump-size pocket under the skin, and the pump was inserted with the pump opening facing away from the incision. After the wound was closed, mice were treated with meloxicam for pain relief. For 7 or 42 days post-surgery, tail blood was collected at regular intervals.

The test system of data set [2] is testis, epididymis, kidneys, eyes, liver, spleen, pancreas. To be noted: mouse, in vivo. The protocol: as §1
Blinded histopathological evaluation of indicated organs (testis, epididymis, kidneys, eyes, liver, spleen, and pancreas) was performed by a board-certified comparative pathologist at the WCM Laboratory of Comparative Pathology. […] Organs were fixed in 10% neutral buffered formalin followed by embedding into paraffin. Sections were cut followed by staining with hematoxylin and eosin (H&E) for microscopic evaluation.

In data set [3] the target is T1, sAC-overexpressing rat 4-4 cells (Rattus norvegicus, UniProt Q9Z286).
T1 construct: expressed in transfected cells
T1 sequence (Q9Z286 1-469 limits assumed): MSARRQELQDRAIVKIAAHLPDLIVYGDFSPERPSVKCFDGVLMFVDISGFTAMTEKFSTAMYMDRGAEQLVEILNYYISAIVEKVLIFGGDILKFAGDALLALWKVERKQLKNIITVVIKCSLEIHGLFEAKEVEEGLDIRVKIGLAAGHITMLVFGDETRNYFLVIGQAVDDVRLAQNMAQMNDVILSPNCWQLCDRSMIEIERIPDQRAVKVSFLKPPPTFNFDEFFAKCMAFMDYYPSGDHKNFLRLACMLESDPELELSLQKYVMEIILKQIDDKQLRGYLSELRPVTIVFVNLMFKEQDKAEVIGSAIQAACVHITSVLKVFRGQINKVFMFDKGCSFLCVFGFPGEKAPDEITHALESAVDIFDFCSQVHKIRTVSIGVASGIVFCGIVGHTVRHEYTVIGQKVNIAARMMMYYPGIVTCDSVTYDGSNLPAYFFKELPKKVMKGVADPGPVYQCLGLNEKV
Also noted: method as in PMID 36246105. To be noted: read-out: IC50 in cellular assays; cited from earlier work.

Each structure is given as a SMILES string. pIC50: −log10 of the molar value.

For orientation: pIC50 means the negative decadic logarithm of the IC50, by convention in mol/L.

Regarding `Cn1cc(Cc2ccccc2OCCN2CCOCC2)c(-c2cc(Cl)nc(N)n2)n1` [TDI-11155], the “delivered level relative to cellular IC50” value in data set [1] (7 days) was found to be 15 fold. For the same compound, the “delivered level relative to cellular IC50” value in data set [1] (42 days) is listed as “threefold”. In addition, in data set [2], the “Epididymis: Epithelial karyomegaly” value is on record as 2, MF; the “Epididymis: Exfoliated germ cells” value is reported as 1, MF; the Eyes entry is “N”; the “Kidneys: Lymphoplasmacytic and histiocytic infiltrates, pelvic” value is 1, MF. Also, in data set [2], the “Kidneys: Tubular basophilia, cortical” value is listed as 1, F; the “Kidneys: Tubular mineralization, papillary” value was 1, F; the “Liver: Extramedullary hematopoiesis, random” value is 1, MF; the “Liver: Lymphoplasmacytic, histiocytic, and neutrophilic hepatitis, midzonal” value is 1, F. For the same compound, in data set [2], the “Liver: Lymphoplasmacytic, histiocytic, and neutrophilic hepatitis, periportal” value is on record as 2, F; the Pancreas result is recorded as “N”; the Spleen result is listed as “N”; the “behavioral effects during treatment” value is reported as “no observed behavioral effects”. For the same compound, in data set [2], the “gross abnormalities in major organs at study termination” value is given as “no gross abnormalities” and the “salt precipitation in kidneys” value is listed as “no signs of salt precipitation”. The pIC50 in data set [3] was 7.80.

The values are drawn from PMC9929232, “On-demand male contraception via acute inhibition of soluble adenylyl cyclase” (Nature Communications, 2023).
